According to paper PMC8436246 (ACS Medicinal Chemistry Letters, 2021):
Values belong to the compound of their own block, whether it stands above or below them.

Experiments:
[1] = test system: EMT6 tumor-implanted BALB/c mice; assay: pharmacokinetic-pharmacodynamic experiments in EMT6 tumor-bearing BALB/c mice; assay type: in vivo
[2] = in vitro stability in mouse hepatocytes; assay type: in vitro ADME
[3] = mouse pharmacokinetic study, oral bioavailability; assay type: in vivo, C57BL/6 mice

SMILES: O=C(O)[C@H]1NCC[C@H]1CCCB(O)O [Compound 4a]
serum and tumor arginine levels ([1]; 30, 100, 300 mpk BID p.o., 1 h after fourth dose, vs saline control): substantially elevated
pharmacodynamic effects on serum and tumor arginine levels with or without codosing of mDX400 ([1]; p.o. 250 mpk BID, 14 day, ± mDX400 i.p. 5 mpk Q5D): comparable pharmacodynamic effects
tolerability / body weight ([1]; p.o. 250 mpk BID, alone and with mDX400 (i.p. 5 mpk Q5D), 14 day repeated dosing): well tolerated

SMILES: CC(C)[C@H](N)C(=O)N[C@H]1CN[C@H](C(=O)O)[C@@H]1CCCB(O)O [Compound 24a]
metabolic stability [2]: good metabolic stability was not achieved

combined exposures of 18 and 23 (% F) ([3]; 23 dosed orally, 10 mpk, mouse): 27 % F
clearance ([3]; mouse pharmacokinetic experiments): rapid clearance
SMILES: C[C@H](N)C(=O)N[C@H]1CN[C@H](C(=O)O)[C@@H]1CCCB(O)O [Compound 23]
